Measurements taken from patent publication US20150011508A1, “COMPOUNDS AND COMPOSITIONS AS C-KIT KINASE INHIBITORS” (priority 2011, published 2015).

Molecular target: T1, c-kit (Homo sapiens, UniProt P10721)
T1 construct: human Mo7e cells which endogenously express c-kit; endogenous in cells; host or cells: human Mo7e cells (SCF-dependent promegakaryocytic leukemia line)
Assay: Mo7e cell proliferation assay (SCF dependent proliferation)
Type: cell-based
Conditions: human Mo7e cells stimulated with human recombinant SCF, 48 h, CellTiter Glo, 1% FBS (footnote)
Protocol: Compounds of Formula (I) and Formula (II) provided herein were assayed to measure their capacity to inhibit c-kit and PDGFR kinases using the appropriate assay described below: c-Kit inhibition was evaluated using the Mo7e cell proliferation assay, and PDGFR inhibition was evaluated using the Rat A10 cell proliferation assay and the Human TGHA-VSMC cell proliferation assay.
The compounds of Table 1 and Table 2 were tested for inhibition of SCF dependent proliferation using human Mo7e cells which endogenously express c-kit in a 384 well format. […] After 48 hours of incubation at 37° C., cell viability was measured by adding 25 uL of CellTiter Glo (Promega) to the cells and the luminescence was measured by a CLIPR CCD camera (Molecular Devices).
The IC50 value is given as that concentration of the test compound in question that provoke a response halfway between the baseline and maximum responses.

T1 sequence (P10721 26-976): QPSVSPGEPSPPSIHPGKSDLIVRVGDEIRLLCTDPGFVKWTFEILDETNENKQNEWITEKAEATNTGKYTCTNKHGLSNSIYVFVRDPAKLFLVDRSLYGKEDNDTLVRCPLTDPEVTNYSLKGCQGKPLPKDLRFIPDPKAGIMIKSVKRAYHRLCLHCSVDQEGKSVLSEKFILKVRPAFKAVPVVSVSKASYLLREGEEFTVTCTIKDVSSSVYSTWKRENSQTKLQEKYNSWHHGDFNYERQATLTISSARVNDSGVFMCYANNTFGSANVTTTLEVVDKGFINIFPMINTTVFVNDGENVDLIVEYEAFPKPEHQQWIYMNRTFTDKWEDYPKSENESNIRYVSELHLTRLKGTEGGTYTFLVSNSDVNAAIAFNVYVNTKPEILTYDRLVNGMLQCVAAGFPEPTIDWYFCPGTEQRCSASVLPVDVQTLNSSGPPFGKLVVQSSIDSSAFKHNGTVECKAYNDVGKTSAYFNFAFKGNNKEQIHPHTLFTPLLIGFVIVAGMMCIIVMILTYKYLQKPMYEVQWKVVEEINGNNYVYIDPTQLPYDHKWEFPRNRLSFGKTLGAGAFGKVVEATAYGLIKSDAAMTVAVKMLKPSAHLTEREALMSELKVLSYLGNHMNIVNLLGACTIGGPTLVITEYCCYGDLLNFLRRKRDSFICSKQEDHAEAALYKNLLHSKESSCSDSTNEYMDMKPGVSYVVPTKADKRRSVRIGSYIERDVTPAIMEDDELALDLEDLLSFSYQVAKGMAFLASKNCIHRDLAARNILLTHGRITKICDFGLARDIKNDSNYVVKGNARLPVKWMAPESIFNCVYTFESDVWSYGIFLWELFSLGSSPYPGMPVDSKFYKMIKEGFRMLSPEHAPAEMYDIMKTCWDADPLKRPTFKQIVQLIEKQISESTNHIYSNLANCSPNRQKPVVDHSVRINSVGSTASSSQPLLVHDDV

IC50 (Table 1) | IC50 (Table 2) | Compound
8 nM |  | Cc1ccn2c(C(=O)Nc3cc(-c4noc(CCC(C)(OC(=O)[C@H](C)N)C(F)(F)F)n4)ccc3C)cnc2c1 (stereo partly drawn) [F271, (2S)-1,1,1-trifluoro-2-methyl-4-(3-(4-methyl-3-(7-methylimidazo[1,2-a]pyridine-3-carboxamido)phenyl)-1,2,4-oxadiazol-5-yl)butan-2-yl 2-aminopropanoate]
53 nM |  | Cc1nc(-c2ccc(C)c(NC(=O)c3cnc4ccc(-c5c(C)noc5C)cn34)c2)no1 [F49]
58 nM |  | Cc1nc(-c2ccc(C)c(NC(=O)c3cnc4ccc(-c5sc(C(=O)NCCO)nc5C)cn34)c2)no1 [F263, N-(2-hydroxyethyl)-4-methyl-5-(3-((2-methyl-5-(5-methyl-1,2,4-oxadiazol-3-yl)phenyl)carbamoyl)imidazo[1,2-a]pyridin-6-yl)thiazole-2-carboxamide]
 | 381 nM | Cc1ccc(-c2noc(CC(=O)O)n2)cc1NC(=O)c1cnc2ccccn12 [F146]
11 nM |  | Cc1ccc(-c2noc(COC(C)C(F)(F)F)n2)cc1NC(=O)c1cnc2ccccn12 (stereo not shown) [F96]
22 nM |  | Cc1ccc(-c2noc(CC(=O)OC(C)(C)C)n2)cc1NC(=O)c1cnc2ccccn12 [F27, tert-butyl 2-(3-(3-(imidazo[1,2-a]pyridine-3-carboxamido)-4-methylphenyl)-1,2,4-oxadiazol-5-yl)acetate]
58 nM |  | Cc1ccc(-c2noc(C[C@@H](O)C(F)(F)F)n2)cc1NC(=O)c1cnc2ccccn12 [F31]
79 nM |  | Cc1ccc(-c2noc(CNS(=O)(=O)C(C)C)n2)cc1NC(=O)c1cnc2ccccn12 [F25]
16 nM |  | Cc1nc(-c2ccc(C)c(NC(=O)c3cnc4ccc(-c5cccnc5F)cn34)c2)no1 [F92]
93 nM |  | Cc1ccc(-c2noc([C@H](C)NC(=O)OC(C)(C)C)n2)cc1NC(=O)c1cnc2ccccn12 [F13]
 | 682 nM | Cc1ccc(-c2noc(C(C)(C)CO)n2)cc1NC(=O)c1cnc2ccccn12 [F109]
30 nM |  | Cc1ccc2ncc(C(=O)Nc3cc(-c4noc(CC[C@](C)(O)C(F)(F)F)n4)ccc3C)n2c1 [F84]
 | 127 nM | Cc1nc(-c2ccc(C)c(NC(=O)c3cnc4ccc(C(N)=S)cn34)c2)no1 [F241]
 | 779 nM | COC(=O)NCc1nc(-c2ccc(C)c(NC(=O)c3cnc4cc(C#N)ccn34)c2)no1 [F158]
 | 119 nM | COCCOCc1nc(-c2cc(NC(=O)c3cnc4ccccn34)c(C)cc2C)no1 [F190]
 | 119 nM | Cc1ccc(-c2nc(C(C)C)no2)cc1NC(=O)c1cnc2ccccn12 [F107]
8 nM |  | Cc1nc(-c2ccc(C)c(NC(=O)c3cnc4ccc(-c5sc(CO)nc5C)cn34)c2)no1 [F265, 6-(2-(hydroxymethyl)-4-methylthiazol-5-yl)-N-(2-methyl-5-(5-methyl-1,2,4-oxadiazol-3-yl)phenyl)imidazo[1,2-a]pyridine-3-carboxamide]
272 nM |  | Cc1ccc(-c2noc(CCC(C)(C)O)n2)cc1NC(=O)c1cnc2cc(N3CCOC3=O)ccn12 [F61]
 | 1800 nM | Cc1ccc(-c2noc(CCC(C)(C)O)n2)cc1NC(=O)c1cnc2c(N)cccn12 [F246]
 | 220 nM | COC(=O)NCc1nc(-c2ccc(C)c(NC(=O)c3cnc4ccc(C#N)cn34)c2)no1 [F168]
 | 571 nM | Cc1nc(-c2ccc(C)c(NC(=O)c3cnc4ccc(CCN5CCNCC5)cn34)c2)no1 [F211]

IC50 (Table 1) | IC50 (Table 2) | Compound
 | 139 nM | COCCNC(=O)OCc1nc(-c2ccc(C)c(NC(=O)c3cnc4ccccn34)c2)no1 [F131]
 | 196 nM | Cc1nc(-c2ccc(C)c(NC(=O)c3cnc4ccc(-c5cncnc5)cn34)c2)no1 [F206]
53 nM |  | Cc1nc(-c2ccc(C)c(NC(=O)c3cnc4ccc(-c5cccnc5C)cn34)c2)no1 [F82]
 | 867 nM | CC(=O)NCc1nc(-c2ccc(C)c(NC(=O)c3cnc4ccccn34)c2)no1 [F141]
63 nM |  | Cc1ccc(-c2noc(CCNC(=O)OC(C)(C)C)n2)cc1NC(=O)c1cnc2ccccn12 [F2]
 | 166 nM | Cc1nc(-c2ccc(C)c(NC(=O)c3cnc4ccc(-c5nc(C)c(C(C)O)s5)cn34)c2)no1 (stereo not shown) [F236]
 | 414 nM | COCc1n[nH]c(-c2ccc3ncc(C(=O)Nc4cc(-c5noc(C)n5)ccc4C)n3c2)n1 [F196]
99 nM |  | CO[C@H](C)c1nc(-c2ccc(C)c(NC(=O)c3cnc4ccccn34)c2)no1 [F14]
7 nM |  | Cc1ccc(-c2noc(CCC(C)(C)O)n2)cc1NC(=O)c1cnc2cc(-c3cnn(C)c3)ccn12 [F63]
24 nM |  | Cc1nc(-c2ccc(C)c(NC(=O)c3cnc4ccc(-c5c(C)nn(CCN6CCOCC6)c5C)cn34)c2)no1 [F106, 6-(3,5-dimethyl-1-(2-morpholinoethyl)-1H-pyrazol-4-yl)-N-(2-methyl-5-(5-methyl-1,2,4-oxadiazol-3-yl)phenyl)imidazo[1,2-a]pyridine-3-carboxamide]
58 nM |  | Cc1ccc(-c2noc(CCC(C)(C)O)n2)cc1NC(=O)c1cnc2cc(N3CCOCC3)ccn12 [F60]
 | 142 nM | Cc1ccc(-c2noc(CCC(C)(C)O)n2)cc1NC(=O)c1cnc2cc(F)ccn12 [F169]
 | 182 nM | Cc1ccc(-c2noc(C(CC(F)(F)F)N(C)C)n2)cc1NC(=O)c1cnc2ccccn12 (stereo not shown) [F171]
65 nM |  | CNC(=O)c1sc(-c2ccc3ncc(C(=O)Nc4cc(-c5noc(C)n5)ccc4C)n3c2)nc1C [F258, N,4-dimethyl-2-(3-((2-methyl-5-(5-methyl-1,2,4-oxadiazol-3-yl)phenyl)carbamoyl)imidazo[1,2-a]pyridin-6-yl)thiazole-5-carboxamide]
 | 223 nM | Cc1cc(-c2ccc3ncc(C(=O)Nc4cc(-c5noc(C)n5)ccc4C)n3c2)n(C)n1 [F207]
16 nM |  | Cc1ccn2c(C(=O)Nc3cc(-c4noc(NCC(C)C)n4)ccc3C)cnc2c1 [F69]
43 nM |  | Cc1ccc(-c2noc(CC[C@](C)(O)C(F)(F)F)n2)cc1NC(=O)c1cnc2cc(F)ccn12 [F86]
7 nM |  | Cc1ccc(-c2noc(CCOCC(F)(F)F)n2)cc1NC(=O)c1cnc2ccccn12 [F28]
32 nM |  | CC(=O)CCc1nc(-c2ccc(C)c(NC(=O)c3cnc4ccccn34)c2)no1 [F5]
 | 1340 nM | CC(=O)N[C@@H](C)c1nc(-c2ccc(C)c(NC(=O)c3cnc4ccccn34)c2)no1 [F140]
23 nM |  | COC(=O)NCc1nc(-c2ccc(C)c(NC(=O)c3cnc4cc(-c5cnn(CCN6CCOCC6)c5)ccn34)c2)no1 [F41]

IC50 (Table 1) | IC50 (Table 2) | Compound
 | 1030 nM | COC(=O)NCc1nc(-c2ccc(C)c(NC(=O)c3cnc4ccc(CCC(=O)OC(C)(C)C)cn34)c2)no1 [F216]
64 nM |  | Cc1ccn2c(C(=O)Nc3cc(-c4noc(CC[C@](C)(O)C(F)(F)F)n4)ccc3C)cnc2c1 (single isomer, unassigned) [F75]
 | 103 nM | COCCOCc1nc(-c2ccc(C)c(NC(=O)c3cnc4ccc(OC)cn34)c2)no1 [F188]
 | 209 nM | Cc1nc(-c2ccc(C)c(NC(=O)c3cnc4ccc(-c5c(C)nn(CC(=O)OC(C)(C)C)c5C)cn34)c2)no1 [F234]
45 nM |  | Cc1ccn2c(C(=O)Nc3cc(-c4noc(C[C@@H](O)C(F)(F)F)n4)ccc3C)cnc2c1 [F99]
 | 158 nM | Cc1ccc(-c2noc(CCC(C)(C)O)n2)cc1NC(=O)c1cnc2ccc(CCN3CCOCC3)cn12 [F184]
 | > 10000 nM | COC(=O)NCc1nc(-c2ccc(C)c(NC(=O)c3cnc4ccc(CCC(=O)O)cn34)c2)no1 [F230]
 | 1480 nM | Cc1nc(-c2ccc(C)c(NC(=O)c3cnc4ccc(C(N)=O)cn34)c2)no1 [F240]
68 nM |  | CNC(=O)c1ccc(-c2ccc3ncc(C(=O)Nc4cc(-c5noc(C)n5)ccc4C)n3c2)cn1 [F93]
61 nM |  | CCS(=O)(=O)NCc1nc(-c2ccc(C)c(NC(=O)c3cnc4ccccn34)c2)no1 [F20]
 | 508 nM | Cc1nc(-c2ccc(C)c(NC(=O)c3cnc4ccc(C#N)cn34)c2)no1 [F185]
 | 196 nM | Cc1ccc(-c2noc([C@@H](C)N)n2)cc1NC(=O)c1cnc2ccccn12 [F127]
32 nM |  | CNC(=O)Cn1nc(C)c(-c2ccc3ncc(C(=O)Nc4cc(-c5noc(C)n5)ccc4C)n3c2)c1C [F260, 6-(3,5-dimethyl-1-(2-(methylamino)-2-oxoethyl)-1H-pyrazol-4-yl)-N-(2-methyl-5-(5-methyl-1,2,4-oxadiazol-3-yl)phenyl)imidazo[1,2-a]pyridine-3-carboxamide]
25 nM |  | Cc1ccn2c(C(=O)Nc3cc(-c4noc(CCC(C)(OP(=O)(O)O)C(F)(F)F)n4)ccc3C)cnc2c1 (stereo in doubt) [F270, (R)-1,1,1-trifluoro-2-methyl-4-(3-(4-methyl-3-(7-methylimidazo[1,2-a]pyridine-3-carboxamido)phenyl)-1,2,4-oxadiazol-5-yl)butan-2-yl dihydrogen phosphate]
24 nM |  | Cc1nc(-c2ccc(C)c(NC(=O)c3cnc4ccc(-c5cnn(CC(C)(C)O)c5)cn34)c2)no1 [F45]
81 nM |  | Cc1ccc(-c2noc(COCCOC(C)C)n2)cc1NC(=O)c1cnc2ccccn12 [F33, N-(5-(5-((2-isopropoxyethoxy)methyl)-1,2,4-oxadiazol-3-yl)-2-methylphenyl)imidazo[1,2-a]pyridine-3-carboxamide]
 | 1030 nM | Cc1ccc(-c2noc(CN)n2)cc1NC(=O)c1cnc2ccccn12 [F217]
8 nM |  | Cc1ccc(-c2noc(CNC(=O)OC(C)(C)C)n2)cc1NC(=O)c1cnc2ccccn12 [F6]
9 nM |  | Cc1nc(-c2ccc(C)c(NC(=O)c3cnc4ccc(-c5c(C)n[nH]c5C)cn34)c2)no1 [F104, 6-(3,5-dimethyl-1H-pyrazol-4-yl)-N-(2-methyl-5-(5-methyl-1,2,4-oxadiazol-3-yl)phenyl)imidazo[1,2-a]pyridine-3-carboxamide]
